Reference: US9896435B2, “N-pyrrolidinyl,N′-pyrazolyl-urea, thiourea, guanidine and cyanoguanidine compounds as TrkA kinase inhibitors” (Array BioPharma Inc., priority 2012, dated 2018)

Assays:
Experiment in all cases: KinaseProfiler off-target kinase profiling
Assay type in all cases: biochemical
Details in all cases: 10 μM, ATP near Km
PAK6 = PAK6 (Homo sapiens (Human), UniProt Q9NQU5)
Method in brief: (§1)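 Kinase panel screen, compound fixed at 10 μM; ATP near Km for every kinase. Duplicates averaged, results given relative to control (POC).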

GSK3alpha = GSK3alpha (Homo sapiens (Human), UniProt P49840)
Method in brief: as §1

PKCiota = PKCiota (Homo sapiens (Human), UniProt P41743)
Method in brief: as §1

PAK2 = PAK2 (Homo sapiens (Human), UniProt Q13177)
Method in brief: as §1

JAK3 = JAK3 (Homo sapiens (Human), UniProt P52333)
Method in brief: as §1

PASK = PASK (Homo sapiens (Human), UniProt Q96RG2)
Method in brief: as §1

Rsk4 = Rsk4 (Homo sapiens (Human), UniProt Q9UK32)
Method in brief: as §1

DRAK1 = DRAK1 (Homo sapiens (Human), UniProt Q9UEE5)
Method in brief: as §1

Met = Met (Homo sapiens (Human), UniProt P08581)
Method in brief: as §1

LIMK1 = LIMK1 (Homo sapiens (Human), UniProt P53667)
Method in brief: as §1

JNK1alpha1 = JNK1alpha1 (Homo sapiens (Human), UniProt P45983)
Method in brief: as §1

MLK1 = MLK1 (Homo sapiens (Human), UniProt P80192)
Method in brief: as §1

ROCK-II = ROCK-II (Homo sapiens (Human), UniProt O75116)
Method in brief: as §1

PRK2 = PRK2 (Homo sapiens (Human), UniProt Q16513)
Method in brief: as §1

MSK2 = MSK2 (Homo sapiens (Human), UniProt O75676)
Method in brief: as §1

PDGFRbeta = PDGFRbeta (Homo sapiens (Human), UniProt P09619)
Method in brief: as §1

VRK2 = VRK2 (Homo sapiens (Human), UniProt Q86Y07)
Method in brief: as §1

mTOR = mTOR (Homo sapiens (Human), UniProt P42345)
Method in brief: as §1

NEK7 = NEK7 (Homo sapiens (Human), UniProt Q8TDX7)
Method in brief: as §1

CK1gamma3 = CK1gamma3 (Homo sapiens (Human), UniProt Q9Y6M4)
Method in brief: as §1

WNK3 = WNK3 (Homo sapiens (Human), UniProt Q9BYP7)
Method in brief: as §1

IRAK4 = IRAK4 (Homo sapiens (Human), UniProt Q9NWZ3)
Method in brief: as §1

DMPK = DMPK (Homo sapiens (Human), UniProt Q09013)
Method in brief: as §1

Flt1 = Flt1 (Homo sapiens (Human), UniProt P17948)
Method in brief: as §1

PAK4 = PAK4 (Homo sapiens (Human), UniProt O96013)
Method in brief: as §1

EphA8 = EphA8 (Homo sapiens (Human), UniProt P29322)
Method in brief: as §1

Abl-P = Abl-P (Homo sapiens (Human), UniProt P00519)
Method in brief: as §1

CK1gamma2 = CK1gamma2 (Homo sapiens (Human), UniProt P78368)
Method in brief: as §1

p38beta = p38beta (Homo sapiens (Human), UniProt Q15759)
Method in brief: as §1

LOK = LOK (Homo sapiens (Human), UniProt O94804)
Method in brief: as §1

SGK2 = SGK2 (Homo sapiens (Human), UniProt Q9HBY8)
Method in brief: as §1

DDR2 = DDR2 (Homo sapiens (Human), UniProt Q16832)
Method in brief: as §1

WNK2 = WNK2 (Homo sapiens (Human), UniProt Q9Y3S1)
Method in brief: as §1

STK33 = STK33 (Homo sapiens (Human), UniProt Q9BYT3)
Method in brief: as §1

MYLK = MYLK (Homo sapiens (Human), UniProt Q15746)
Method in brief: as §1

c-RAF = c-RAF (Homo sapiens (Human), UniProt P04049, Y340D/Y341D)
Method in brief: as §1

Plk2 = Plk2 (Homo sapiens (Human), UniProt Q9NYY3)
Method in brief: as §1

CDK6/cyclinD3 = CDK6/cyclinD3 (Homo sapiens (Human), UniProt Q00534)
Method in brief: as §1

AKT3 = AKT3 (Homo sapiens (Human), UniProt Q9Y243)
Method in brief: as §1

CDK3/cyclinE = CDK3/cyclinE (Homo sapiens (Human), UniProt Q00526)
Method in brief: as §1

ROCK-II, sequence (O75116 whole entry): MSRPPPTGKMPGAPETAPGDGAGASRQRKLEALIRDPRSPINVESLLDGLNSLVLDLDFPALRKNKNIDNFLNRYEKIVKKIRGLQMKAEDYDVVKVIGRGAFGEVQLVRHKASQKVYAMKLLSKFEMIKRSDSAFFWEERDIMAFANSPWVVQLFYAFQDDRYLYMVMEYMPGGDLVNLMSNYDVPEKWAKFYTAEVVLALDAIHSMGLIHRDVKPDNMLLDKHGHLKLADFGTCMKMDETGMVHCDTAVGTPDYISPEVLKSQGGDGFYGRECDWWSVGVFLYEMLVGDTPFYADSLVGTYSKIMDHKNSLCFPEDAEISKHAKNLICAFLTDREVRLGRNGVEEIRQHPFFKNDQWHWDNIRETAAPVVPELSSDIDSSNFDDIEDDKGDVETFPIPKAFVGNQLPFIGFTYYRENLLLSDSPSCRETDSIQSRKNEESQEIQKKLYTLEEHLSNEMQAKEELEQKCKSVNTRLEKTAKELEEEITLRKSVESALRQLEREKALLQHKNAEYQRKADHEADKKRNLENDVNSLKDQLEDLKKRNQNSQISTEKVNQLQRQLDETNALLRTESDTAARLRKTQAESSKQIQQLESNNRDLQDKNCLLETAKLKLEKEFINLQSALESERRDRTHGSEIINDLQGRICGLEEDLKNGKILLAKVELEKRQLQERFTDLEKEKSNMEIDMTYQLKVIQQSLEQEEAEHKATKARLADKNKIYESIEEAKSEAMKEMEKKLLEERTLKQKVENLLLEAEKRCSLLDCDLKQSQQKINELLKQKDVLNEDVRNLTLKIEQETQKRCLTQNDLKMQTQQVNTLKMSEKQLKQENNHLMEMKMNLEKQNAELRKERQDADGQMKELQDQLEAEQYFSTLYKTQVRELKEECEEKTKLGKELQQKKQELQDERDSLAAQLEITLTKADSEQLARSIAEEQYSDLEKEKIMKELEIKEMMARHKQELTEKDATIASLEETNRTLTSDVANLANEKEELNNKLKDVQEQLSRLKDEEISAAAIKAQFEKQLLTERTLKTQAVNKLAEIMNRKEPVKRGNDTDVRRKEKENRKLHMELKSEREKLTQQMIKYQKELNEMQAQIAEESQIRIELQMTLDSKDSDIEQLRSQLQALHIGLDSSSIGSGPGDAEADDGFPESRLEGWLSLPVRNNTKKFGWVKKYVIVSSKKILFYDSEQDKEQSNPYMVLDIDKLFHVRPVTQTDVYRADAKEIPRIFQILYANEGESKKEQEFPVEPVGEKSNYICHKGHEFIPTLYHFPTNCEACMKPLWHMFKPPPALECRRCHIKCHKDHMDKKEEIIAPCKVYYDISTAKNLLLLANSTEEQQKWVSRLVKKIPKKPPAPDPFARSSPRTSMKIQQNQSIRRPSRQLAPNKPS
PDGFRbeta, sequence (P09619 33-1106): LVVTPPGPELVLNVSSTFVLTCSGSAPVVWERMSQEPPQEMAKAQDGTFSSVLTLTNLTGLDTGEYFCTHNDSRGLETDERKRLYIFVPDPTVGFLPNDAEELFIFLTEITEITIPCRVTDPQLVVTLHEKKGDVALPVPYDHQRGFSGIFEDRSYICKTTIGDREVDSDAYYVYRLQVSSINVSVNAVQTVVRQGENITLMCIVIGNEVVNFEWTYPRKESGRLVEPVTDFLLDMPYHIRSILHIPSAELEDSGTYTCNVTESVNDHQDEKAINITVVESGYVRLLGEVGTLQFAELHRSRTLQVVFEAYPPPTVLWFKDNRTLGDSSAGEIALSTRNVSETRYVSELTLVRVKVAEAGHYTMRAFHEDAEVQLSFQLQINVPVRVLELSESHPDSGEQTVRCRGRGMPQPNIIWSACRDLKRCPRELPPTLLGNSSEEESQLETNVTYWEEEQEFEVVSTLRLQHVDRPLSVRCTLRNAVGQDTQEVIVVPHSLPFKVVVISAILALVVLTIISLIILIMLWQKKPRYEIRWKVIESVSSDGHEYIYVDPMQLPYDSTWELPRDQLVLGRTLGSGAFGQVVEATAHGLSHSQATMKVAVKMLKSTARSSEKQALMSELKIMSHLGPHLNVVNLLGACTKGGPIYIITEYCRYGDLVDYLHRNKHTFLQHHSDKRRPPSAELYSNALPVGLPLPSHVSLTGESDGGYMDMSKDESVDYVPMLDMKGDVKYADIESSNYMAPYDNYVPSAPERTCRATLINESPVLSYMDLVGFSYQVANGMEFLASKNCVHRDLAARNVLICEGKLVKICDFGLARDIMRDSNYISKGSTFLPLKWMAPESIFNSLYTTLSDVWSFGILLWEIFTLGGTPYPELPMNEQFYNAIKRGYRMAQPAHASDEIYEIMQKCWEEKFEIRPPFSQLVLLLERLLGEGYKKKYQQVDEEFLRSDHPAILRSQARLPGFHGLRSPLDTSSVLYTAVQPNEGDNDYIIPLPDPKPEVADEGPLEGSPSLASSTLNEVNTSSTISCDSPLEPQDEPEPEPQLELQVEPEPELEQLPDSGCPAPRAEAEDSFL
p38beta, sequence (Q15759 whole entry): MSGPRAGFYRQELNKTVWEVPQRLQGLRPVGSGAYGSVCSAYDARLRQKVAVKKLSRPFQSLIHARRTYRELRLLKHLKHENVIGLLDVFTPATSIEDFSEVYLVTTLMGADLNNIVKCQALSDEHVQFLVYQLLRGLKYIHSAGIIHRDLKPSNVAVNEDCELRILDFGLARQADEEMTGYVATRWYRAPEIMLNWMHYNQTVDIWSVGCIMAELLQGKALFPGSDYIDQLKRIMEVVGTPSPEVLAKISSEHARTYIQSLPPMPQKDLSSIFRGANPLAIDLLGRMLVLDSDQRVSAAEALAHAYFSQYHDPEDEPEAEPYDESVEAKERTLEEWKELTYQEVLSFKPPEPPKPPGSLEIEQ
AKT3, sequence (Q9Y243 whole entry): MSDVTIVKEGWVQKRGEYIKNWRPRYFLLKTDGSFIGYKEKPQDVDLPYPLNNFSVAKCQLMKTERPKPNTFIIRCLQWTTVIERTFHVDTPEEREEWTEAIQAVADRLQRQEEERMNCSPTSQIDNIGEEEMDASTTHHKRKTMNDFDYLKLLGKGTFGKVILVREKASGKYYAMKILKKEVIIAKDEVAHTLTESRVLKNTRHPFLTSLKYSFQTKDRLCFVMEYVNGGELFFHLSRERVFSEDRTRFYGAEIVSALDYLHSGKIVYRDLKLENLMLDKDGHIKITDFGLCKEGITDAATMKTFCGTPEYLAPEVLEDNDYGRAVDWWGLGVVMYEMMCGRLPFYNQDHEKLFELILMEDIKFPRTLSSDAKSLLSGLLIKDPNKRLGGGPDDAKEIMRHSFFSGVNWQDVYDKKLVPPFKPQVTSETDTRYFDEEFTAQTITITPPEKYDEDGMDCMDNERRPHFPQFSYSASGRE
LOK, sequence (O94804 whole entry): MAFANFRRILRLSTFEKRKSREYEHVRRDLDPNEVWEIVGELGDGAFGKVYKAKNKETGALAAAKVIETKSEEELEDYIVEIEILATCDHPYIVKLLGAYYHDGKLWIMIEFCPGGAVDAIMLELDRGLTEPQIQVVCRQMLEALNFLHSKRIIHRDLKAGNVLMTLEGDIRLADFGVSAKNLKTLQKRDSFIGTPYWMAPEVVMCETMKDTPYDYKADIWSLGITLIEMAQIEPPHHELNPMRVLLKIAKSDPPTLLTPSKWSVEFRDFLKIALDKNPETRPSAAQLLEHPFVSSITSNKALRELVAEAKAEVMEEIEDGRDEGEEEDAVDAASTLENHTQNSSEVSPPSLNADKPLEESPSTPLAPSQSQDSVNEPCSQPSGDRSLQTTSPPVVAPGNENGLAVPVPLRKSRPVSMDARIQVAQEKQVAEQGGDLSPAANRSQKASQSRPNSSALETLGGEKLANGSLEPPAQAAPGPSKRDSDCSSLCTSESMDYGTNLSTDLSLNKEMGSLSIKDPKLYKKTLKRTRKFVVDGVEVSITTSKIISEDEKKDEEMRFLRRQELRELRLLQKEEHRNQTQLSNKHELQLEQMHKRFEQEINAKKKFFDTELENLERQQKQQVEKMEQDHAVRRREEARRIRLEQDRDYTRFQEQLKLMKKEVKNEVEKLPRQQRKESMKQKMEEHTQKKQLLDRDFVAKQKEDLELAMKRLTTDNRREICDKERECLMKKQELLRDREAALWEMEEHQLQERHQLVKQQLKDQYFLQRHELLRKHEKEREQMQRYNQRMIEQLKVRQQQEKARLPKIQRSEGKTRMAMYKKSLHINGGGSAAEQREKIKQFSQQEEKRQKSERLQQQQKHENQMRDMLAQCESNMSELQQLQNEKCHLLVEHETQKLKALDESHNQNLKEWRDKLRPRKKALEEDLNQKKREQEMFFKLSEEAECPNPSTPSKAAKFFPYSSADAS
GSK3alpha, sequence (P49840 whole entry): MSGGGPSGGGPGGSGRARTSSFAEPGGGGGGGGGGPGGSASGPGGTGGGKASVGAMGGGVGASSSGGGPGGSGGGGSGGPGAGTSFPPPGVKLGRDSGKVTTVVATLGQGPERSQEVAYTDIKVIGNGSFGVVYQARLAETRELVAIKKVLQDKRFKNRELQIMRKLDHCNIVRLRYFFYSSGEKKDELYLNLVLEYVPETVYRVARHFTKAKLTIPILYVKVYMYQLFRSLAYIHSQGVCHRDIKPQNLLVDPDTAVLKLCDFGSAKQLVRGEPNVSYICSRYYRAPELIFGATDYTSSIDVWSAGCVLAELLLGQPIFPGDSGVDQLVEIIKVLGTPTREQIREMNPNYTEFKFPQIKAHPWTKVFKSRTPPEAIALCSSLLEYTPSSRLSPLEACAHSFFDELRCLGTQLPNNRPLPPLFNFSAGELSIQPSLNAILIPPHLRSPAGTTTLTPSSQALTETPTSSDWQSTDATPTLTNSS
NEK7, sequence (Q8TDX7 whole entry): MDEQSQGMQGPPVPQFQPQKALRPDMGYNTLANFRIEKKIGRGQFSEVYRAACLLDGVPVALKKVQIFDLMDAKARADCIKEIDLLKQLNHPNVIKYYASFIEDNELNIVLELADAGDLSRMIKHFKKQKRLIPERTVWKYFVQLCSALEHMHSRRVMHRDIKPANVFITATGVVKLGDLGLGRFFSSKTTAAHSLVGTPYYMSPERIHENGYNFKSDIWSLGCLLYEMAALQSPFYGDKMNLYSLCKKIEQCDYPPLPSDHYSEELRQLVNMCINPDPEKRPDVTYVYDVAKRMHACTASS

| SMILES | Avg POC (PAK6) | Avg POC (GSK3alpha) | Avg POC (PKCiota) | Avg POC (PAK2) | Avg POC (JAK3) | Avg POC (PASK) | Avg POC (Rsk4) | Avg POC (DRAK1) | Avg POC (Met) | Avg POC (LIMK1) | Avg POC (JNK1alpha1) | Avg POC (MLK1) | Avg POC (ROCK-II) | Avg POC (PRK2) | Avg POC (MSK2) | Avg POC (PDGFRbeta) | Avg POC (VRK2) | Avg POC (mTOR) | Avg POC (NEK7) | Avg POC (CK1gamma3) | other results |
| --- | --- | --- | --- | --- | --- | --- | --- | --- | --- | --- | --- | --- | --- | --- | --- | --- | --- | --- | --- | --- | --- |
| COCCN1C[C@@H](NC(=O)Nc2c(C)c(-c3ccnc(C)c3)nn2-c2ccccc2)[C@H](c2ccc(F)c(F)c2)C1 [Example 2, 1-((3S,4R)-4-(3,4-difluorophenyl)-1-(2-methoxyethyl)pyrrolidin-3-yl)-3-(4-methyl-3-(2-methylpyridin-4-yl)-1-phenyl-1H-pyrazol-5-yl)urea] | 106 POC | 94 POC | 95 POC | 95.5 POC | 103.5 POC | 102.5 POC | 136.5 POC | 86.5 POC | 106 POC | 100 POC | 98 POC | 103.5 POC | 102.5 POC | 105 POC | 120 POC | 108.5 POC | 101.5 POC | 108.5 POC | 117 POC | 87.5 POC | Avg POC (WNK3): 99 POC; Avg POC (IRAK4): 132 POC; Avg POC (DMPK): 98.5 POC; Avg POC (Flt1): 86 POC; Avg POC (PAK4): 103.5 POC; Avg POC (EphA8): 104.5 POC; Avg POC (Abl-P): 113.5 POC; Avg POC (CK1gamma2): 73.5 POC; Avg POC (p38beta): 101.5 POC; Avg POC (LOK): 109 POC; Avg POC (SGK2): 99 POC; Avg POC (DDR2): 100.5 POC; Avg POC (WNK2): 98 POC; Avg POC (STK33): 94 POC; Avg POC (MYLK): 86.5 POC; Avg POC (c-RAF): 103.5 POC; Avg POC (Plk2): 99.5 POC; Avg POC (CDK6/cyclinD3): 96 POC; Avg POC (AKT3): 110 POC; Avg POC (CDK3/cyclinE): 98 POC |
| COCCN1C[C@@H](NC(=O)Nc2c(C)c(-c3cnc(C)nc3)nn2-c2ccccc2)[C@H](c2cc(F)cc(F)c2)C1 [Example 14, 1-((3S,4R)-4-(3,5-difluorophenyl)-1-(2-methoxyethyl)pyrrolidin-3-yl)-3-(4-methyl-3-(2-methylpyrimidin-5-yl)-1-phenyl-1H-pyrazol-5-yl)urea] | 102 POC | 101.5 POC | 104.5 POC | 92.5 POC | 101 POC | 100.5 POC | 113.5 POC | 101.5 POC | 96.5 POC | 98 POC | 105 POC | 102 POC | 93.5 POC | 106.5 POC | 116 POC | 120 POC | 109.5 POC | 102.5 POC | 106.5 POC | 95 POC | Avg POC (WNK3): 96 POC; Avg POC (IRAK4): 110.5 POC; Avg POC (DMPK): 105 POC; Avg POC (Flt1): 81 POC; Avg POC (PAK4): 100.5 POC; Avg POC (EphA8): 104.5 POC; Avg POC (Abl-P): 102.5 POC; Avg POC (CK1gamma2): 53 POC; Avg POC (p38beta): 93 POC; Avg POC (LOK): 105 POC; Avg POC (SGK2): 100 POC; Avg POC (DDR2): 96 POC; Avg POC (WNK2): 99.5 POC; Avg POC (STK33): 103.5 POC; Avg POC (MYLK): 101.5 POC; Avg POC (c-RAF): 89 POC; Avg POC (Plk2): 102 POC; Avg POC (CDK6/cyclinD3): 99.5 POC; Avg POC (AKT3): 104 POC; Avg POC (CDK3/cyclinE): 100.5 POC |
